Our source for the EMSA screening results and IC50 values is patent publication EP3290412A1, “HIV-1 NUCLEOCAPSID INHIBITORS” (Università degli Studi di Siena, priority 2016, dated 2018).

Molecules are shown by their SMILES.

Assay [1] addresses T1, full length (1-55) HIV-1 NCp7 (Human immunodeficiency virus type 1 group M subtype B, UniProt P12493).
T1 construct: recombinant full length (1-55) HIV-1 NCp7 proteins; made in house
Kind of assay: Electromobility Shift Assay (EMSA), competition for ssDNA binding. The settings on record: NCp7 300 nM, M13mp18 ssDNA; positive = >25% inhibition at 100µM. The method, boiled down:
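Recombinant NL4-3 NCp7 (300 nM in the pre-mix) was combined with compound in 20 mM Tris-HCl pH 7.4, 2 mM MgCl2, 100 mM NaCl, 1 mM DTT, then M13mp18 ssDNA was added for 25 min at 37 °C. Complexes were run on 1% agarose/0.5x TBE and stained with SybrGold. IC50 is the concentration at which bound ssDNA migrated 50% of the bound–unbound distance (triplicate).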

The test system of assay [2] is HIV-1 reference strain NL4-3. Description: MonoCycle assay (TZM-bl cells). The assay is classed as cell-based. The method, boiled down:
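TZM-bl cells (20,000/well) were infected with NL4-3 in the presence of five-fold serial inhibitor dilutions. After 48 h, cells were lysed and luciferase luminescence (RLU) was counted. IC50 was derived from the RLU data.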

For assay [3], the system named is HIV-1 reference strain NL4-3. Kind of assay: BiCycle assay (MT-2 then TZM-bl cells). The assay is classed as cell-based. The method, boiled down: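 MT-2 cells were infected with NL4-3 in the presence of five-fold compound dilutions. After 72 h, the supernatant was passed to TZM-bl cells. Two days later, luciferase luminescence was read and IC50 calculated, giving a readout that spans the whole replication cycle.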

Where [4] appears, read: Human immunodeficiency virus 1, NL43, TZM-bl cells, NL4-3, 48 hours, read-out: Mono Cycle IC50.
Where [5] appears, read: Human immunodeficiency virus 1, NL43, MT-2 cells 72 hours then TZM-bl cells two days, NL4-3, read-out: BiCycle IC50.
The mark [6] stands for this setting: Human immunodeficiency virus 1, NL43, TZM-bl, 48 h, read-out: Mono Cycle IC50 nM.
The mark [7] stands for this setting: Human immunodeficiency virus 1, NL43, TZM-bl, read-out: BiCycle IC50 nM.

For the compound `Cc1ccnc(-c2nc(O)c(O)c(C(=O)NC3(C4CCCCC4)CC3)n2)c1` [Compound 84, N-(1-cyclohexylcyclopropyl)-5,6-dihydroxy-2-(4-methylpyridin-2-yl)pyrimidine-4-carboxamide], the EMSA screening results in assay [1] was “Positive (A compound showing >25% inhibition when tested at 100µM concentration is considered as "positive")”. The results for the IC50 in assay [2] (setting [4]) and in assay [3] (setting [5]) were 21200 nM and 1880 nM, respectively.

With `Cc1cc(-c2nc(O)c(O)c(C(=O)N[C@H](C)C3CCCCC3)n2)nc2ccccc12` [Compound 73, (R)-N-(1-cyclohexylethyl)-5,6-dihydroxy-2-(4-methylquinolin-2-yl)pyrimidine-4-carboxamide], in assay [1], the EMSA screening results was “Positive (A compound showing >25% inhibition when tested at 100µM concentration is considered as "positive")”. Moreover, the IC50 was more than 50000 nM in assay [2] (setting [4]) and 358 nM in assay [3] (setting [5]).

Regarding `C[C@H](NC(=O)c1nc(-c2cc3ccccc3cn2)nc(O)c1O)C1CCCCC1` [Compound 72, (S)-N-(1-cyclohexylethyl)-5,6-dihydroxy-2-(isoquinolin-3-yl)pyrimidine-4-carboxamide], the EMSA screening results in assay [1] is on record as “Positive (A compound showing >25% inhibition when tested at 100µM concentration is considered as "positive")”. Also, the half-maximal inhibitory concentration (IC50) in assay [2] (setting [6]) is 13400 nM; in assay [3] (setting [7]), 382 nM.

For `CC(NC(=O)c1nc(-c2nccc3ccccc23)nc(O)c1O)C1CCC(F)(F)CC1` (stereo not drawn) [Compound 90, N-(1-(4,4-difluorocyclohexyl)ethyl)-5,6-dihydroxy-2-(isoquinolin-1-yl)pyrimidine-4-carboxamide], the EMSA screening results in assay [1] was “Positive (A compound showing >25% inhibition when tested at 100µM concentration is considered as "positive")”. In addition, the values for the IC50 in assay [2] (setting [4]) and in assay [3] (setting [5]) were more than 50000 nM and 1790 nM, respectively.

With `C[C@H](NC(=O)c1nc(-c2ccc(C(=O)OCc3ccccc3)cn2)nc(O)c1O)C1CCCCC1` [Compound 70, benzyl (S)-6-(4-((1-cyclohexylethyl)carbamoyl)-5,6-dihydroxypyrimidin-2-yl)nicotinate], in assay [1], the EMSA screening results was “Positive (A compound showing >25% inhibition when tested at 100µM concentration is considered as "positive")”. The values for the half-inhibitory concentration (IC50) in assay [2] (setting [6]) and in assay [3] (setting [7]) were more than 50000 nM and 190 nM, respectively.

On to `C[C@H](NC(=O)c1nc(-c2ccc3ccccc3n2)nc(O)c1O)C1CCCCC1` [Compound 75, (S)-N-(1-cyclohexylethyl)-5,6-dihydroxy-2-(quinolin-2-yl)pyrimidine-4-carboxamide], for which the EMSA screening results in assay [1] is on record as “Positive (A compound showing >25% inhibition when tested at 100µM concentration is considered as "positive")”. Also, the IC50 was more than 50000 nM in assay [2] (setting [6]) and 752 nM in assay [3] (setting [7]).

Take `C[C@@H](NC(=O)c1nc(-c2cc(C(=O)NCc3ccccc3)ccn2)nc(O)c1O)C1CCCCC1` [Compound 74, (R)-2-(4-(benzylcarbamoyl)pyridin-2-yl)-N-(1-cyclohexylethyl)-5,6-dihydroxypyrimidine-4-carboxamide]: the EMSA screening results in assay [1] is given as “Positive (A compound showing >25% inhibition when tested at 100µM concentration is considered as "positive")”. Further, the IC50 was more than 50000 nM in assay [2] (setting [4]) and 299 nM in assay [3] (setting [5]).

With `C[C@H](NC(=O)c1nc(-c2cc(C(=O)OCc3ccccc3)ccn2)nc(O)c1O)C1CCCCC1` [Compound 71, benzyl (S)-2-(4-((1-cyclohexylethyl)carbamoyl)-5,6-dihydroxypyrimidin-2-yl)isonicotinate], the EMSA screening results in assay [1] was “Positive (A compound showing >25% inhibition when tested at 100µM concentration is considered as "positive")”. Further, the values for the IC50 in assay [2] (setting [6]) and in assay [3] (setting [7]) were more than 50000 nM and 559 nM, respectively.
